# In patent publication US12435061B2 (priority 2020, dated 2025):
# Read-outs that look alike come from different tables or passages of the source.
# Columns and labels:
# [1] = system: male C57BL/6J mice, AEW induced pruritus; test: Acetone-ether-water (AEW) induced pruritus model in mice; settings: HC-030031 4 mg/mouse SC 5 min before recording; P=0.0005 vs Vehicle2
# [2] = minipig, in vivo
# Experimental: To assess PK profile of escalating doses of KM-023 administered via PO and IV routes. Animal care was carried out as described above. Animals were observed daily throughout the study period.
# PK samples were obtained in the following time points:
# On Day 0 and Day 1—time 0, 5 min post injection, 30 min post injection, 1 h post injection, 2 h post injection, 6 h post injection, 24 h post injection (on the following day)
# On Day 2, 5 min post injection, 30 min post injection, 1 h post injection, 2 h post injection, 6 h post injection
# Plasma samples for PK analysis have been send to Swiss BioQuant AG, Switzerland for further processing.
# Methodology used for the detection of KM-023 in minipigs plasma is described in above. In both animals dosed with test item, exposure to KM-023 was detected.
# [3] = system: SLIGRL-NH2 itching mouse model; test: SLIGRL-NH2 itching mouse model (Example 17); type: in vivo; settings: pre-treatment with either dose of oral KM-023
# [4] = design: species or system mice; settings: mouse, in vivo, po
# Experimental: At the beginning of the study, 3 mice were weight before compound treatment. Group of 3 mice received an increasing dose of KM-023 every 24 hours 1 mg/kg, 10 mg/kg, 30 mg/kg, 100 mg/kg, 500 mg/kg once daily, in a volume of 0.2 ml, administered orally. The mice were weighed daily before treatment.
# At the end of the experiment, the mice were sacrificed with CO2.
# [5] = system: SLIGRL-NH2 (PAR2 agonist peptide) induced itching in mice; test: Efficacy of oral KM-023 in SLIGRL-NH2 itching mouse model; type: in vivo; settings: for Decrease of number of scratches: 30 min before SLIGRL induction, 30 minutes post induction
# Description: The aim of this study is to evaluate the efficacy of anti-itching activity of KM-023 in SLIGRL-NH2 (SEQ ID NO: 1) mouse itching model.
# Proteinase-activated receptors (PAR) are a group of G-protein coupled receptors which are activated by cleavage of their terminal sequence by serine proteinases. […] Thus, the administration of the murine PAR2 agonist peptide, SLIGRL-NH2 (SEQ ID NO: 1), is an known and acceptable model to assess anti-pruritic compounds in mice.
# 32 mice in good health status and corresponding to the specifications details above were included in the in vivo phase.
# The animals were weighed before treatment. Induction of itching was performed on animals by intradermal administration of SLIGRL-NH2 (SEQ ID NO: 1) peptide in neck (volume about 20 μL).
# Oral route was performed by oral gavage using plastic probe 30 min before induction with SLIGRL-NH2 (SEQ ID NO: 1) peptide.
# Animals were placed in plexiglass red walls observation devices (for simultaneous observations of 4 mice). Red walls permitted observations of animals by the operator without the possibility for animals to see the operator. Animals were placed in observation cages before induction for 20 to 30 minutes.
# Intradermal injections of SLIGRL (SEQ ID NO: 1) was performed on vigil animals in shaved neck and video recording was initiated immediately after injection for a duration of 30 minutes.
# Manual image analysis was performed on recorded movies.
# Scratching/itching bouts were counted on 6 time periods of 5 minutes (total of 30 min for each mouse).
# The scratches were counted at predefined time intervals of 5 minutes post induction and 30 minutes post induction.
# [6] = rat, in vivo
# Description: The rats per group for either skin or CSF sample collection contains 9 rats.
# Animals were allocated randomly into the following treatment groups.
# Group 1: Control—2 untreated, naïve animals for the collection of blood, skin, and CSF at the point of euthanasia.
# The same 3 rats were allocated to each alternating time point of bleeding.
# Samples of plasma, skin and CSF were sent to Swiss BioQuant AG, Reinach, Switzerland for further analysis.
# The extravascular model was used for oral dosing. Sparse sampling option was used for plasma concentration.
# The following pharmacokinetic parameters were estimated from the plasma, skin and CSF concentration versus time curve:
# tmax Time to reach the maximum plasma concentration read directly from the individual plasma concentration-time curve.
# Cmax Maximum plasma concentration read directly from the individual plasma concentration-time curve.
# Cmax/doseCmax corrected for dose.
# AUC0-t Area under the plasma concentration-time curve from time point zero to last measurable concentration. AUC0-t was calculated according to the “linear up log down” trapezoidal rule.
# AUC0-8 h Area under the plasma concentration-time curve from time point zero to time point 8 h after dosing. AUC0-8 h was calculated according to the “linear up log down” trapezoidal rule.
# AUC0-8 h/dose AUC0-8 h corrected for dose
# [7] = system: DS-Nh mice (TRPV3 Gly573Ser gain-of-function mutation); test: Efficacy of KM-001 in DS-Nh mouse model (skin histology, dermatitis scoring); settings: topical ointment on cheek, Day 14, KM-001 1% and 0.3%, Tacrolimus 0.1%
# Experimental: Mice were identified by left ear punch. […] On Day −30, −23, −20, −14, −9, −2, 0, 3, 7, 10, 14, erythema and edema of the mice face have been scored on the right and left sides according to criteria in table 21 (Dermatitis scoring criteria).
# The viability, clinical signs and behavior were monitored daily. Body weight was recorded daily. […] Mice were monitored just and 7 hours after administration. Animals in all groups were sacrificed at Day 14 by exsanguination through abdominal vena cava under isoflurane.
# For skin samples, the skin at the inflammation site from both cheeks of the face were collected. For histological analyses, the skin was fixed in 4% paraformaldehyde for 24 hours. After fixation, these specimens were processed to paraffin embedding for H&E staining, MT staining and immunohistochemistry and toluidine blue staining.
# Skin sections taken from facial treated area of each mouse are fixed in paraffin and stained with Hematoxylin & Eosin.
structure (smiles),measurement,setting,value
CC(C)c1ccc(NC(=O)Cn2cnc3c2c(=O)n(C)c(=O)n3C)cc1 [HC-030031],scratching bouts,[1],significantly decreased
same,scratching time,[1],significantly decreased
Cc1nc(C(=O)N2CCC(c3ccc(-c4ccccc4C4CC4)cc3CO)C2)ccc1O (centres unmarked) [KM-023],KM-023 concentrations at 24 h post-dose,[2],above 0.300 ng/mL
same,abnormal clinical signs,[2],No abnormal clinical signs were observed
same,bioavailability of the KM-023 formulation,[2],0.2-0.8%
same,blood exposure,[2],dose dependent blood exposure
same,tmax,[2],49.8 min
same,Half-time,[2]; iv,3.3 to 4.2 h
same,apparent maximum concentration time (tmax),[2]; iv,5 min
same,AUC0-8 h,"[2]; iv, 1 mg/kg",314 ng·h/mL
same,AUC0-h,"[2]; iv, 1 mg/kg",320 ng·h/mL
same,"AUC0-t/dose (lower part of table, beside AUC0-h)","[2]; iv, 1 mg/kg",320 (h * ng/mL)/(mg/kg)
same,"AUC0-t/dose (upper part of table, beside AUC0-8 h)","[2]; iv, 1 mg/kg",314 (h * ng/mL)/(mg/kg)
same,C0,"[2]; iv, 1 mg/kg",422 ng/mL
same,Vz/F,"[2]; iv, 1 mg/kg",19.1 L/kg
same,AUC0-8 h,"[2]; iv, 5 mg/kg",1300 ng·h/mL
same,AUC0-h,"[2]; iv, 5 mg/kg",1300 ng·h/mL
same,"AUC0-t/dose (lower part of table, beside AUC0-h)","[2]; iv, 5 mg/kg",261 (h * ng/mL)/(mg/kg)
same,"AUC0-t/dose (upper part of table, beside AUC0-8 h)","[2]; iv, 5 mg/kg",260 (h * ng/mL)/(mg/kg)
same,C0,"[2]; iv, 5 mg/kg",2340 ng/mL
same,Vz/F,"[2]; iv, 5 mg/kg",18.2 L/kg
same,AUC0-8 h,"[2]; iv, 10 mg/kg",2800 ng·h/mL
same,AUC0-h,"[2]; iv, 10 mg/kg",2910 ng·h/mL
same,"AUC0-t/dose (lower part of table, beside AUC0-h)","[2]; iv, 10 mg/kg",291 (h * ng/mL)/(mg/kg)
same,"AUC0-t/dose (upper part of table, beside AUC0-8 h)","[2]; iv, 10 mg/kg",280 (h * ng/mL)/(mg/kg)
same,C0,"[2]; iv, 10 mg/kg",6880 ng/mL
same,time of maximum concentration (tmax),[2]; po,5 to 30 min
same,AUC0-24 h,"[2]; po, 1 mg/kg",0.442 ng·h/mL
same,AUC0-t/dose,"[2]; po, 1 mg/kg",0.442 kg·ng·h/mL/mg
same,AUC0-∞,"[2]; po, 1 mg/kg",0.596 ng·h/mL
same,AUC0-24 h,"[2]; po, 5 mg/kg",1.31 ng·h/mL
same,AUC0-t/dose,"[2]; po, 5 mg/kg",0.262 kg·ng·h/mL/mg
same,AUC0-∞,"[2]; po, 5 mg/kg",2.01 ng·h/mL
same,AUC0-24 h,"[2]; po, 10 mg/kg",23.2 ng·h/mL
same,AUC0-t,"[2]; po, 10 mg/kg",31.2 ng·h/mL
same,AUC0-t/dose,"[2]; po, 10 mg/kg",2.32 kg·ng·h/mL/mg
same,AUC0-∞,"[2]; po, 10 mg/kg",23.2 ng·h/mL
same,AUC0-∞/dose,"[2]; po, 10 mg/kg",3.12 kg·ng·h/mL/mg
same,number of scratches observed 30 minutes post induction,[3],decrease the number of scratches
same,Maximal Feasible Dose (MFD),[4],500 mg/kg
same,Decrease of number of scratches,[5]; oral KM-023 1 mg/kg group,56.25%
same,Decrease of number of scratches,[5]; oral KM-023 10 mg/kg group,68.8%
same,Anti-itching effect,"[5]; oral pretreatment, SLIGRL induced scratch behaviour",anti-pruritic activity
same,Dose proportionality of plasma AUC0-8 h,[6],roughly more than dose proportional manner
same,BBB crossing / CNS entry,[6]; po,does not cross BBB
same,Distribution in CSF,[6]; po,did not distribute well in CSF
same,Distribution in skin,[6]; po,distributed well in skin
same,Systemic absorption,[6]; po,acceptable systemic absorption
same,tmax in plasma,"[6]; po, 20 mg/kg",15 min
same,Exposure ratio CSF/plasma of AUC0-8 h,"[6]; po, 60 mg/kg",0.0150-0.0162
same,Exposure ratio skin/plasma of AUC0-8 h,"[6]; po, 60 mg/kg",0.437-0.816
same,tmax,"[6]; po, 60 mg/kg",0.250
same,tmax in CSF,"[6]; po, 60 mg/kg",15 min
same,tmax in plasma,"[6]; po, 60 mg/kg",30 min
same,tmax in skin,"[6]; po, 60 mg/kg",15 min to 1-hour
"C=CC[C@@H]1/C=C(\C)C[C@H](C)C[C@H](OC)[C@H]2O[C@@](O)(C(=O)C(=O)N3CCCC[C@H]3C(=O)O[C@H](/C(C)=C/[C@@H]3CC[C@@H](O)[C@H](OC)C3)[C@H](C)[C@@H](O)CC1=O)[C@H](C)C[C@@H]2OC [Tacrolimus, reference compound]","Skin pathology (H&E histology: epidermis, inflammation)",[7],only slightly improved skin pathology
